Results from patent publication US20110306547A1, “LHRH - ANTAGONISTS IN THE TREATMENT OF FERTILITY DISORDERS” (Zentaris GmbH, priority 1996, published 2011).
Where a SMILES comes first, the peptide text is derived from it. [ ]: non-standard residue; d: D form. dPhe(4-Cl) = N[C@H](Cc1ccc(Cl)cc1)C(=O)O; d2Nal = N[C@H](Cc1ccc2ccccc2c1)C(=O)O; dCit = NC(=O)NCCC[C@@H](N)C(=O)O; d3Pal = N[C@H](Cc1cccnc1)C(=O)O

System: patients undergoing COS/ART
Experiment: Phase II clinical trial of Cetrorelix in controlled ovarian stimulation / superovulation for assisted reproduction (COS/ART)
Assay type: in vivo, human (patients)
Procedure: The results of a phase II clinical trial are shown in Table I. A total of […] patients were treated. […] During multiple dosing, the mean days of Cetrorelix application is 6 days. 25 babies were born by the end of May 1996 (7 following multiple doses; 18 following single/dual doses). [table] […] [table] 238 patients were treated with Cetrorelix by subcutaneous injection of Cetrorelix […]-Lyophilisat. 134 patients were treated with multiple doses and 104 patients with single or dual doses. The multiple doses are 0.25 mg/day or higher. The single dose was 3 mg or higher. […] Multiple doses were applied for 3 to a maximum of 10 days dependent on follicular development.

[1] = multiple dose schedule, daily s.c., 3-7/14 days, phase II dose finding
[2] = single dose, posology 1 day, phase II dose finding

CC(=O)N[C@H](Cc1ccc2ccccc2c1)C(=O)N[C@H](Cc1ccc(Cl)cc1)C(=O)N[C@H](Cc1cccnc1)C(=O)N[C@@H](CO)C(=O)N[C@@H](Cc1ccc(O)cc1)C(=O)N[C@H](CCCNC(N)=O)C(=O)N[C@@H](CC(C)C)C(=O)N[C@@H](CCCNC(=N)N)C(=O)N1CCC[C@H]1C(=O)N[C@H](C)C(N)=O [Cetrorelix] (Ac-[d2Nal][dPhe(4-Cl)][d3Pal]SY[dCit]LRP[dA]-NH2)
premature LH surge (FIG. 1) (FIG. 1): absolute prevention of any premature LH surge
pregnancies (number) (all phase II patients, both regimens): 71 pregnancies
minimal effective dose (Dose/Day) [1]: 0.25 min. effect. dose mg
no effect dose (Dose/Day) [1]: 0.10 no effect. dose mg
premature LH surge (multiple doses of 0.25 mg/day or higher): No premature LH surge was seen in any patient
premature LH surge (single dose of 3 mg or higher): No premature LH surge was seen in any patient
minimal effective dose [2]: 3 min. effective dose mg
no effect dose [2]: 2 no effect. Dose mg
babies born by the end of May 1996 (total): 25
